Laboratory results published in the supplement of paper PMC10331698.
± gives the standard deviation of the averaged measurements.

Tests used:
Experiment in all cases: level (log10 ratio to DMSO vehicle control); higher = higher biomarker level / cell amount than vehicle control
Conditions in all cases: in DMSO
Perfluorodecanoic acid = compound: O=C(O)C(F)(F)C(F)(F)C(F)(F)C(F)(F)C(F)(F)C(F)(F)C(F)(F)C(F)(F)C(F)(F)F [Perfluorodecanoic acid]
Procedure: (§1)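 BioMAP Diversity Plus panel of 12 human primary cell co-culture systems (3C, 4H, LPS, SAg, BT, BF4T, BE3C, CASM3C, HDF3CGF, KF3CT, MyoF, Mphg). Compounds were added 1 h before stimulation and left for 24 h (MyoF 48 h; BT 72 h for soluble read-outs or 6 d for IgG). Biomarkers were read by ELISA, cytotoxicity by SRB, PBMC viability and proliferation by Alamar Blue. Each well value was divided by the mean of 8 DMSO control wells on the same plate and log10 transformed; duplicate blinded samples were tested at 4 concentrations.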

Heptafluorobutyramide = compound: NC(=O)C(F)(F)C(F)(F)C(F)(F)F [Heptafluorobutyramide]
Procedure: as §1

Perfluoroheptanoic acid = compound: O=C(O)C(F)(F)C(F)(F)C(F)(F)C(F)(F)C(F)(F)C(F)(F)F [Perfluoroheptanoic acid]
Procedure: as §1

Pentafluoropropionamide = compound: NC(=O)C(F)(F)C(F)(F)F [Pentafluoropropionamide]
Procedure: as §1

[1] = compound: FC(F)(F)C(F)(C(F)(F)F)C(F)(F)C(F)(F)CC1CO1 [3-(Perfluoro-3-methylbutyl)-1,2-propenoxide]
Procedure: as §1

[2] = compound: CCN(CCO)S(=O)(=O)C(F)(F)C(F)(F)C(F)(F)C(F)(F)C(F)(F)C(F)(F)C(F)(F)C(F)(F)F [N-Ethyl-N-(2-hydroxyethyl)perfluorooctanesulfonamide]
Procedure: as §1

[3] = compound: O=C(O)C(F)(F)C(F)(F)OC(F)(F)F [Perfluoro-3-methoxypropanoic acid]
Procedure: as §1

Test System | level (log10) (Perfluorodecanoic acid; 6700 nM) | level (log10) (Perfluorodecanoic acid; 20000 nM) | level (log10) (Heptafluorobutyramide; 6700 nM) | level (log10) (Heptafluorobutyramide; 20000 nM) | level (log10) (Heptafluorobutyramide; 60000 nM) | level (log10) (Perfluoroheptanoic acid; 6700 nM) | level (log10) (Perfluoroheptanoic acid; 20000 nM) | level (log10) (Perfluoroheptanoic acid; 60000 nM) | level (log10) (Pentafluoropropionamide; 6700 nM) | level (log10) (Pentafluoropropionamide; 20000 nM) | level (log10) (Pentafluoropropionamide; 60000 nM) | level (log10) ([1]; 6700 nM) | level (log10) ([1]; 20000 nM) | level (log10) ([2]; 6700 nM) | level (log10) ([2]; 20000 nM) | level (log10) ([3]; 6700 nM) | level (log10) ([3]; 20000 nM) | level (log10) ([3]; 60000 nM)
KF3CT:CXCL9/MIG | 0.0065 ± 0.0078 | -0.0185 ± 0.0035 | 0.0065 ± 0.0021 | 0.0005 ± 0.0078 | 0.0155 ± 0.0064 | -0.0085 ± 0.005 | -0.0015 ± 0.0035 | 0.011 ± 0.013 | 0.0055 ± 0.013 | -0.0015 ± 0.0035 | -0.0085 ± 0.012 | 0.005 ± 0.014 | 0.001 ± 0.013 | 0.004 ± 0.0085 | -0.032 ± 0.013 | 0.0125 ± 0.0064 | 0.008 ± 0.0099 | 0.021 ± 0.0014
KF3CT:CXCL10/IP-10 | -0.044 ± 0.017 | -0.134 ± 0.028 | 0.002 ± 0.0042 | 0.0015 ± 0.0078 | 0.005 ± 0.0099 | -0.003 ± 0.018 | 0.0125 ± 0.026 | 0.0155 ± 0.023 | -0.007 ± 0.0014 | 0 ± 0.0028 | -0.0145 ± 0.0035 | -0.009 ± 0.016 | -0.026 ± 0.014 | -0.0395 ± 0.022 | -0.107 ± 0.015 | 0.011 ± 0.023 | 0.027 ± 0.034 | 0.03 ± 0.016
KF3CT:IL-1alpha | -0.0535 ± 0.0035 | -0.068 ± 0.0042 | -0.0035 ± 0.0064 | 0.013 ± 0.0057 | -0.0005 ± 0.032 | -0.007 ± 0.018 | 0.016 ± 0.014 | -0.0115 ± 0.0064 | -0.0165 ± 0.005 | -0.034 ± 0.0085 | -0.0105 ± 0.044 | -0.0105 ± 0.013 | -0.0065 ± 0.015 | 0.006 ± 0.028 | -0.111 | 0.0455 ± 0.005 | 0.01 ± 0.0042 | 0.0225 ± 0.00071
KF3CT:MMP-9 | -0.103 ± 0.037 | -0.308 ± 0.0028 | 0.002 | -0.0005 ± 0.00071 | 0.0035 ± 0.00071 | -0.0065 ± 0.0078 | 0.0165 ± 0.026 | 0.059 ± 0.025 | -0.0375 ± 0.012 | -0.0255 ± 0.00071 | -0.0105 ± 0.012 | -0.016 ± 0.03 | -0.0265 ± 0.039 | 0.01 ± 0.0085 | -0.0875 ± 0.015 | -0.002 ± 0.0085 | 0.001 ± 0.0071 | 0.01 ± 0.014
KF3CT:PAI-I | -0.0365 ± 0.023 | -0.144 ± 0.042 | -0.0145 ± 0.0035 | -0.011 ± 0.0028 | 0.0105 ± 0.012 | -0.043 ± 0.016 | -0.0355 ± 0.012 | -0.013 ± 0.068 | -0.006 ± 0.0057 | 0.002 ± 0.0014 | 0.0075 ± 0.0021 | 0 ± 0.035 | -0.011 ± 0.037 | -0.0995 ± 0.011 | -0.193 ± 0.014 | -0.0035 ± 0.0021 | -0.0045 ± 0.0035 | -0.0195 ± 0.026
KF3CT:SRB | -0.0325 ± 0.005 | -0.036 ± 0.0085 | -0.0055 ± 0.0035 | 0.0025 ± 0.0078 | -0.001 ± 0.011 | -0.0065 ± 0.005 | -0.006 ± 0.0085 | 0.007 ± 0.016 | -0.006 ± 0.0014 | -0.0025 ± 0.0035 | -0.007 ± 0.023 | -0.004 ± 0.0042 | -0.0085 ± 0.0064 | -0.015 | -0.0305 ± 0.0092 | -0.0145 ± 0.0035 | -0.009 ± 0.0014 | -0.002 ± 0.013
KF3CT:TIMP-2 | 0.003 ± 0.03 | -0.051 ± 0.034 | -0.001 ± 0.011 | 0.0075 ± 0.0035 | 0.008 ± 0.0042 | 0.006 ± 0.021 | 0.0085 ± 0.025 | 0.031 ± 0.017 | 0.0005 ± 0.026 | 0.004 ± 0.027 | 0.0305 ± 0.013 | -0.003 ± 0.0042 | 0.0015 ± 0.042 | 0.0855 ± 0.037 | 0.04 ± 0.0028 | -0.0045 ± 0.025 | 0.0075 ± 0.035 | 0.004 ± 0.016
KF3CT:uPA | -0.0095 ± 0.013 | 0 ± 0.023 | -0.0085 ± 0.022 | -0.0215 ± 0.026 | -0.006 ± 0.014 | 0.007 ± 0.016 | 0.0065 ± 0.0021 | 0.0075 ± 0.013 | -0.005 ± 0.0014 | 0.008 ± 0.0085 | 0.002 ± 0.018 | -0.0045 ± 0.0021 | -0.021 ± 0.017 | 0.022 ± 0.0028 | -0.0225 ± 0.0021 | 0 ± 0.018 | -0.0055 ± 0.012 | 0.002 ± 0.0085
MyoF:CD106/VCAM-1 | -0.019 ± 0.0071 | -0.084 ± 0.02 | -0.0165 ± 0.0064 | -0.017 ± 0.028 | -0.0145 ± 0.018 | -0.013 ± 0.0071 | -0.004 ± 0.016 | -0.0125 ± 0.015 | -0.013 ± 0.017 | 0.006 ± 0.028 | -0.0075 ± 0.0021 | 0.008 ± 0.011 | -0.0305 ± 0.019 | -0.0675 ± 0.0064 | -0.534 ± 0.053 | -0.014 ± 0.0042 | 0.0035 ± 0.013 | 0.001
MyoF:CXCL8/IL-8 | 0.0205 ± 0.037 | 0.0085 ± 0.016 | -0.0015 ± 0.023 | -0.014 ± 0.011 | 0.002 ± 0.0099 | 0.002 ± 0.0042 | 0.0205 ± 0.005 | 0.0175 ± 0.035 | -0.031 ± 0.013 | -0.026 ± 0.016 | 0.013 ± 0.045 | 0.0045 ± 0.00071 | 0.0185 ± 0.0021 | -0.193 ± 0.011 | -0.12 ± 0.022 | 0.001 ± 0.033 | -0.0165 ± 0.0092 | 0.0475 ± 0.0078
MyoF:Collagen I | -0.0065 ± 0.059 | -0.417 ± 0.071 | -0.015 ± 0.013 | -0.0105 ± 0.00071 | -0.014 ± 0.0099 | -0.0225 ± 0.011 | -0.006 | 0.0055 ± 0.043 | 0.012 ± 0.0057 | 0.006 ± 0.0028 | 0.01 ± 0.0028 | 0 ± 0.0099 | -0.017 ± 0.017 | 0.042 ± 0.0028 | -0.155 ± 0.029 | 0.006 ± 0.02 | 0 ± 0.016 | 0.0165 ± 0.013
MyoF:Collagen III | -0.028 ± 0.03 | -0.36 ± 0.066 | -0.0025 ± 0.0092 | 0.0025 ± 0.011 | -0.004 ± 0.02 | -0.013 ± 0.018 | -0.011 ± 0.018 | -0.0055 ± 0.0078 | 0.002 ± 0.031 | -0.005 ± 0.0014 | -0.007 ± 0.0057 | -0.004 ± 0.0099 | -0.0275 ± 0.0078 | -0.0045 ± 0.022 | -0.228 ± 0.17 | 0.004 ± 0.0099 | 0.0095 ± 0.0078 | 0.013 ± 0.0014
MyoF:Collagen IV | 0.334 ± 0.037 | 0.38 ± 0.086 | -0.0185 ± 0.019 | -0.01 ± 0.0028 | 0.0275 ± 0.023 | -0.0175 ± 0.022 | -0.014 ± 0.013 | 0.0305 ± 0.07 | -0.0295 ± 0.03 | -0.0275 ± 0.025 | -0.007 ± 0.051 | 0.029 ± 0.024 | 0.057 ± 0.075 | -0.0665 ± 0.013 | 0.078 ± 0.035 | -0.021 ± 0.02 | 0.002 ± 0.0085 | 0.009 ± 0.013
MyoF:Decorin | 0.0055 ± 0.0064 | -0.071 ± 0.018 | -0.029 ± 0.057 | 0.02 ± 0.081 | 0.0065 ± 0.049 | -0.0015 ± 0.013 | 0.036 ± 0.0042 | 0.0505 ± 0.035 | 0.01 ± 0.017 | 0.0135 ± 0.00071 | 0.0325 ± 0.028 | 0.0025 ± 0.029 | 0.026 ± 0.042 | -0.0095 ± 0.016 | -0.085 ± 0.028 | 0.005 ± 0.017 | 0.0085 ± 0.0078 | 0.0085 ± 0.03
MyoF:MMP-1 | -0.0005 ± 0.023 | -0.048 ± 0.0057 | -0.0185 ± 0.018 | -0.0105 ± 0.049 | 0.027 ± 0.082 | -0.0175 ± 0.0064 | -0.0245 ± 0.011 | 0.021 ± 0.061 | -0.0305 ± 0.063 | -0.0255 ± 0.0064 | 0.016 ± 0.058 | -0.007 ± 0.0085 | -0.014 ± 0.0057 | 0.069 ± 0.021 | 0.426 ± 0.052 | -0.0135 ± 0.0064 | 0.0055 ± 0.011 | 0.0105 ± 0.043
MyoF:PAI-I | 0.0035 ± 0.012 | 0.0205 ± 0.025 | 0.0035 ± 0.00071 | 0.01 ± 0.0014 | -0.0055 ± 0.016 | 0 ± 0.016 | -0.0215 ± 0.023 | 0.0025 ± 0.018 | 0.0075 ± 0.0021 | -0.002 ± 0.0071 | -0.004 ± 0.0057 | -0.0015 ± 0.013 | -0.0035 ± 0.015 | -0.0065 ± 0.0064 | -0.0085 ± 0.018 | 0.0045 ± 0.016 | -0.001 ± 0.0014 | 0.0025 ± 0.0035
